The source of these data is patent publication US20250154169A1, “COMPOUNDS AND METHODS FOR MODULATING SPLICING” (REMIX THERAPEUTICS INC., priority 2021, published 2025).

By IC50 is commonly meant the concentration needed to halve the response being measured. The AC50 is the concentration at which the activity in the assay is half-maximal.

Read-outs that look alike come from different tables or passages of the source. Where only a bound is given, the exact number is not on record here.

What all share (type): cell-based, human
The subject of experiment [1] is HTT mRNA. Put plainly: Splicing RT-qPCR assay, HTT canonical (CJ) and alternative (AJ) junction mRNA. As to conditions: Homo sapiens, A673 or K562 cells, 24 hours compound treatment; for IC50: 24 h, read-out: HTT CJ (IC50, decrease in canonical junction mRNA); for AC50: read-out: HTT AJ (AC50, increase in alternative junction mRNA). In short, it runs like this: (§1)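 Read-out is the abundance of canonical-junction versus new alternative-exon-junction mRNA, determined by real-time qPCR after cDNA synthesis and normalized to a housekeeping gene. It is measured in A673 or K562 cells exposed to compounds for 24 h, top dose 10 uM.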
For orientation: In qPCR the cycle at which signal appears reflects the starting amount.

The test system of experiment [2] is HTT mRNA. Put plainly: Splicing RT-qPCR gene panel, HTT canonical junction (CJ) mRNA. As to conditions: Homo sapiens, Tables 4A/4B, read-out: HTT (IC50, decrease in CJ mRNA, gene panel). The essentials:
(§2)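 Read-out: RT-qPCR of the canonical exon-exon junction transcript, ΔCt vs housekeeping gene, normalized to DMSO, RQ = 2^(−ΔΔCt), converted to percentage response. Cells, A673 or K562, were dosed 24 h at 37 °C across 11 3-fold dilutions from 10 uM.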

Another experiment deals with Target C mRNA. Nature of the experiment: Splicing RT-qPCR gene panel, Target C canonical junction (CJ) mRNA. To be noted: Homo sapiens, Tables 4A/4B, read-out: Target C (IC50, decrease in CJ mRNA, gene panel). In short, it runs like this:
as §2

The test system of the next experiment is SMN2 mRNA. Put plainly: Splicing RT-qPCR gene panel, SMN2 canonical junction (CJ) mRNA. As to conditions: Homo sapiens, Tables 4A/4B, read-out: SMN2 (IC50, decrease in CJ mRNA, gene panel). The essentials:
as §2

In the next experiment the test system is MYB mRNA. Nature of the experiment: Splicing RT-qPCR assay, MYB canonical (CJ) and alternative (AJ) junction mRNA. To be noted: Homo sapiens; for AC50: read-out: MYB AJ (AC50, increase in alternative junction mRNA). The essentials:
as §1

[3] abbreviates: 24 h, A673 or K562 cells, 24 hours compound treatment, RT-qPCR.
Where [4] appears, read: 24 h, A673 or K562 cells, 24 hours compound treatment, RT-qPCR, read-out: MYB CJ (IC50, decrease in canonical junction mRNA).
The mark [5] stands for this setting: Tables 4A/4B, canonical junction qPCR panel, read-out: MYB (IC50, decrease in CJ mRNA, gene panel).

For `Cc1cn2cc(NC(=O)c3ccc(N4CCNCC4)c4cn(C)nc34)cc(C(F)(F)F)c2n1` [Compound 275, 2-methyl-N-[2-methyl-8-(trifluoromethyl)imidazo[1,2-a]pyridin-6-yl]-4-(piperazin-1-yl) indazole-7-carboxamide], the IC50 in the experiment on HTT mRNA [1] is 1 to 10 µM; in the experiment with HTT mRNA [2] it was 1 to 10 µM; in the experiment with Target C mRNA, more than 10 µM; in the experiment on SMN2 mRNA, less than 0.1 µM; in the experiment on MYB mRNA (setting [4]), 0.1 to 1 µM; in the experiment on MYB mRNA (setting [5]) it was 0.1 to 1 µM. For the same compound, the AC50 in the experiment with HTT mRNA [1] is 1 to 10 µM; with MYB mRNA (setting [3]), less than 0.1 µM.

As to `Cc1cn2cc(NC(=O)c3ccc(N4CCC(N(C)C)C4)c4cn(C)nc34)cc(Cl)c2n1` (stereo not shown) [Compound 278], the IC50 was 1 to 10 µM with HTT mRNA [1]; 1 to 10 µM in the experiment on HTT mRNA [2]; 1 to 10 µM in the experiment on Target C mRNA; less than 0.1 µM in the experiment on SMN2 mRNA; 0.1 to 1 µM with MYB mRNA (setting [4]); 0.1 to 1 µM in the experiment on MYB mRNA (setting [5]). Besides, the AC50 in the experiment on HTT mRNA [1] is 1 to 10 µM; in the experiment with MYB mRNA (setting [3]) it was less than 0.1 µM.

`Cc1cn2cc(-c3ccc(C(=O)NC4CCNCC4)c4nn(C)cc34)cc(F)c2n1` [Compound 280]: the IC50 is 1 to 10 µM in the experiment on HTT mRNA [1]; 1 to 10 µM in the experiment with HTT mRNA [2]; more than 10 µM with Target C mRNA; 1 to 10 µM in the experiment on SMN2 mRNA; more than 10 µM with MYB mRNA (setting [4]); more than 10 µM in the experiment on MYB mRNA (setting [5]). The half-maximal activity concentration (AC50) in the experiment on HTT mRNA [1] and in the experiment with MYB mRNA (setting [3]) was 1 to 10 µM in each case.

In the case of `Cc1cn2nc(-c3ccc(C(=O)NC4CCNCC4)c4nn(C)cc34)cc(C)c2n1` [Compound 281], the IC50 in the experiment with HTT mRNA [1] lay in the range of 1 to 10 µM; with HTT mRNA [2], 1 to 10 µM; in the experiment on Target C mRNA it was 1 to 10 µM; in the experiment with SMN2 mRNA, 0.1 to 1 µM; in the experiment with MYB mRNA (setting [4]) it was 1 to 10 µM; in the experiment on MYB mRNA (setting [5]), 1 to 10 µM. In addition, the AC50 in the experiment with HTT mRNA [1] and in the experiment with MYB mRNA (setting [3]) was 1 to 10 µM throughout.

As to `Cc1cn2nc(-c3ccc(C(=O)NC4CCNCC4)c4oc(C)cc34)cc(C)c2n1` [Compound 282], the IC50 was 1 to 10 µM in the experiment with HTT mRNA [1]; 1 to 10 µM with HTT mRNA [2]; more than 10 µM with Target C mRNA; 0.1 to 1 µM in the experiment with SMN2 mRNA; more than 10 µM in the experiment with MYB mRNA (setting [4]); more than 10 µM in the experiment with MYB mRNA (setting [5]). In addition, the AC50 in the experiment on HTT mRNA [1] is 1 to 10 µM; in the experiment on MYB mRNA (setting [3]) it was more than 10 µM.

For the compound `Cc1cn2nc(-c3ccc(C(=O)NC4CCNCC4)c4oc(C)cc34)cc(F)c2n1` [Compound 283], the IC50 in the experiment with HTT mRNA [1] was 1 to 10 µM; in the experiment with HTT mRNA [2], 1 to 10 µM; in the experiment on Target C mRNA it was more than 10 µM; with SMN2 mRNA, 0.1 to 1 µM; with MYB mRNA (setting [4]) it was 1 to 10 µM; in the experiment with MYB mRNA (setting [5]) it was 1 to 10 µM. Moreover, the AC50 in the experiment on HTT mRNA [1] and in the experiment on MYB mRNA (setting [3]) was more than 10 µM each time.

Take `Cc1cn2cc(NC(=O)c3ccc(N4CCNCC4)c4c[nH]nc34)cc(Cl)c2n1` [Compound 286]: the IC50 was more than 10 µM in the experiment with HTT mRNA [1]; more than 10 µM with HTT mRNA [2]; more than 10 µM in the experiment with Target C mRNA; 0.1 to 1 µM with SMN2 mRNA; 0.1 to 1 µM in the experiment with MYB mRNA (setting [4]); 0.1 to 1 µM in the experiment on MYB mRNA (setting [5]). In addition, the concentration at half-maximal activity (AC50) is more than 10 µM in the experiment with HTT mRNA [1] and 1 to 10 µM in the experiment with MYB mRNA (setting [3]).

Take `CCn1cc2c(N3C[C@H]4CC[C@@H](C3)N4)ccc(C(=O)Nc3cc(F)c4nc(C)cn4c3)c2n1` [Compound 289, 4-[(1R,5S)-3,8-diazabicyclo[3.2.1]octan-3-yl]-2-ethyl-N-{8-fluoro-2-methylimidazo[1,2-a]pyridin-6-yl}indazole-7-carboxamide]: the half-maximal inhibitory concentration (IC50) was 1 to 10 µM in the experiment with HTT mRNA [1]; 1 to 10 µM in the experiment on HTT mRNA [2]; more than 10 µM with Target C mRNA; less than 0.1 µM in the experiment with SMN2 mRNA; 0.1 to 1 µM with MYB mRNA (setting [4]); 0.1 to 1 µM in the experiment with MYB mRNA (setting [5]). Besides, the AC50 is more than 10 µM in the experiment with HTT mRNA [1] and 0.1 to 1 µM with MYB mRNA (setting [3]).
